For 17 compounds, T/C results are on record in PubChem BioAssay AID298 (DTP/NCI, 2004).

Values joined by “and” are separate entries in the source; they are usually repeats but may differ in a detail not shown here. Equal entries are not always repeated. Records with an inconclusive call do not appear.

The subject of this experiment is MX-1 breast xenograft, intrarenal, nude mice, tumor weight. The experiment in a line: NCI In Vivo Anticancer Drug Screen. Data for tumor model Human Mammary Carcinoma MX-1 Xenograft (intrarenal inoculation) in NU/NU BALB/C (nude) mice. The note with it: endpoint: mean tumor weight change, higher = larger tumour. In outline: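 Antitumor activity is expressed as a T/C ratio. The treated group's tumor size or survival is compared against the vehicle-treated control group in mice bearing transplanted tumors.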

[1] abbreviates: dose: 300.0 mg/kg/injection, schedule: Q04DX003 (sc), vehicle: saline with Tween-80.
Setting [2] is: dose: 600.0 mg/kg/injection, schedule: Q04DX003 (sc), vehicle: saline with Tween-80.
Setting [3] is: dose: 150.0 mg/kg/injection, schedule: Q04DX003 (ip), vehicle: saline.
[4] abbreviates: dose: 300.0 mg/kg/injection, schedule: Q04DX003 (ip), vehicle: saline.

Consider `CC(=O)O[C@H]1C(=O)[C@@]2(C)[C@H]([C@H](OC(=O)c3ccccc3)[C@]3(O)C[C@H](OC(=O)[C@H](O)[C@@H](NC(=O)c4ccccc4)c4ccccc4)C(C)=C1C3(C)C)[C@]1(OC(C)=O)CO[C@@H]1C[C@@H]2O`, for which the T/C is 5 % of control and 16 % of control (dose: 1.88 mg/kg/injection, schedule: Q01DX009 (ip), vehicle: Klucel (hydroxypropylcellulose) (HPC)); 12 % of control (dose: 2.5 mg/kg/injection, schedule: Q01DX009 (ip), vehicle: Klucel (hydroxypropylcellulose) (HPC)); -80 % of control and -100 % of control (dose: 3.75 mg/kg/injection, schedule: Q01DX009 (ip), vehicle: Klucel (hydroxypropylcellulose) (HPC)); -100 % of control (dose: 4.45 mg/kg/injection, schedule: Q01DX009 (ip), vehicle: Klucel (hydroxypropylcellulose) (HPC)); -61 % of control (dose: 5.0 mg/kg/injection, schedule: Q01DX009 (ip), vehicle: Klucel (hydroxypropylcellulose) (HPC)); -100 % of control (dose: 6.67 mg/kg/injection, schedule: Q01DX009 (ip), vehicle: Klucel (hydroxypropylcellulose) (HPC)). Moreover, the T/C is, setting by setting: (dose: 7.5 mg/kg/injection, schedule: Q01DX009 (ip), vehicle: Klucel (hydroxypropylcellulose) (HPC)) -100 % of control; (dose: 10.0 mg/kg/injection, schedule: Q01DX009 (ip), vehicle: Klucel (hydroxypropylcellulose) (HPC)) -84 % of control and -100 % of control; (dose: 15.0 mg/kg/injection, schedule: Q01DX009 (ip), vehicle: Klucel (hydroxypropylcellulose) (HPC)) -100 % of control.

Turning to `N=C(N)c1ccc(N=Nc2c(O)ccc3cc(O)ccc23)cc1`, the T/C is, setting by setting: (dose: 75.0 mg/kg/injection, schedule: Q04DX003 (ip), vehicle: Klucel (hydroxypropylcellulose) (HPC)) 98 % of control and 123 % of control; (dose: 150.0 mg/kg/injection, schedule: Q04DX003 (ip), vehicle: Klucel (hydroxypropylcellulose) (HPC)) 95 % of control and 117 % of control; (dose: 300.0 mg/kg/injection, schedule: Q04DX003 (ip), vehicle: Klucel (hydroxypropylcellulose) (HPC)) 70 % of control.

In the case of `CC(C)(O)/C=C/C(=O)[C@](C)(O)[C@H]1[C@H](O)C[C@@]2(C)[C@@H]3CC=C4[C@@H](C=C(O)C(=O)C4(C)C)[C@]3(C)C(=O)C[C@]12C`, the T/C reads like this: (dose: 0.25 mg/kg/injection, schedule: Q04DX003 (ip), vehicle: water) 155 % of control; (dose: 0.5 mg/kg/injection, schedule: Q04DX003 (ip), vehicle: water) 118 % of control; (dose: 1.0 mg/kg/injection, schedule: Q04DX003 (ip), vehicle: water) 122 % of control; (dose: 2.0 mg/kg/injection, schedule: Q04DX003 (ip), vehicle: water) 86 % of control.

Consider `COc1cc2c(c(OC)c1O)-c1ccc(OC)c(=O)cc1[C@@H](NC(=O)C(F)(F)F)CC2`, for which the T/C was 62 % of control (dose: 2.5 mg/kg/injection, schedule: Q04DX003 (ip), vehicle: Klucel (hydroxypropylcellulose) (HPC)); 60 % of control (dose: 5.0 mg/kg/injection, schedule: Q04DX003 (ip), vehicle: Klucel (hydroxypropylcellulose) (HPC)); 35 % of control (dose: 10.0 mg/kg/injection, schedule: Q04DX003 (ip), vehicle: Klucel (hydroxypropylcellulose) (HPC)); 34 % of control (dose: 20.0 mg/kg/injection, schedule: Q04DX003 (ip), vehicle: Klucel (hydroxypropylcellulose) (HPC)).

As to `CC(=O)NO`, the T/C runs as follows: (dose: 150.0 mg/kg/injection, schedule: Q04DX003 (ip), vehicle: water) 78 % of control; (dose: 300.0 mg/kg/injection, schedule: Q04DX003 (ip), vehicle: water) 113 % of control; (dose: 600.0 mg/kg/injection, schedule: Q04DX003 (ip), vehicle: water) 79 % of control; (dose: 1200.0 mg/kg/injection, schedule: Q04DX003 (ip), vehicle: water) 74 % of control.

For `C=C/C(C)=C/[C@H](C)C(=O)C[C@H](O)CC1CC(=O)NC(=O)C1`, the T/C reads like this: (dose: 300.5 mg/kg/injection, schedule: Q04DX003 (sc), vehicle: water) 73 % of control; (dose: 600.0 mg/kg/injection, schedule: Q04DX003 (sc), vehicle: water) 98 % of control; (dose: 1200.0 mg/kg/injection, schedule: Q04DX003 (sc), vehicle: water) 89 % of control.

Take `Nc1nc(=S)c2[nH]cnc2[nH]1`: the T/C (dose: 1.6 mg/kg/injection, schedule: Q01DX010 (sc), vehicle: Klucel (hydroxypropylcellulose) (HPC)) was 50 % of control.

For `CN(C)C1C(=O)C(C(=O)NP(=O)(NCCCO)N(CCCl)CCCl)=C(O)C2(O)C(=O)C3=C(O)c4c(O)cccc4C(C)(O)C3CC12` (stereo not given), the T/C is -100 % of control and -98 % of control under setting [1]; -100 % of control under setting [2].

Turning to `Cc1cc2c(=O)cc(-c3ccccc3)oc2c(C(=O)O)c1C`, the T/C is 109 % of control (dose: 125.0 mg/kg/injection, schedule: Q04DX003 (ip), vehicle: saline with Tween-80) and 99 % of control (dose: 250.0 mg/kg/injection, schedule: Q04DX003 (ip), vehicle: saline with Tween-80).

As to `CCS/C(SC)=C(/c1ccccc1)[P+](c1ccccc1)(c1ccccc1)c1ccccc1`, the T/C was 92 % of control (dose: 9.38 mg/kg/injection, schedule: Q04DX003 (sc), vehicle: Klucel (hydroxypropylcellulose) (HPC)); 111 % of control (dose: 18.75 mg/kg/injection, schedule: Q04DX003 (sc), vehicle: Klucel (hydroxypropylcellulose) (HPC)); 75 % of control (dose: 37.5 mg/kg/injection, schedule: Q04DX003 (sc), vehicle: Klucel (hydroxypropylcellulose) (HPC)).

Turning to `COc1cc2c(c(OC)c1OC)-c1ccc(OC)c(=O)cc1[C@@H](NC(C)=O)CC2`, the T/C is 41 % of control and 48 % of control (dose: 0.5 mg/kg/injection, schedule: Q04DX003 (ip), vehicle: saline); 17 % of control and 20 % of control (dose: 1.0 mg/kg/injection, schedule: Q04DX003 (ip), vehicle: saline).

With `CC(=O)O[C@H]1C(=O)[C@@]2(C)C(C(OC(=O)c3ccccc3)[C@]3(O)C[C@H](OC(=O)C(O)C(NC(=O)c4ccccc4)c4ccccc4)C(C)=C1C3(C)C)C1(OC(C)=O)COC1C[C@@H]2OC(=O)CN(C)C` (stereo not given in full) (tested in a mixture with another compound), the T/C reads like this: (dose: 4.13 mg/kg/injection, schedule: Q01DX009 (ip), vehicle: water) 34 % of control; (dose: 8.25 mg/kg/injection, schedule: Q01DX009 (ip), vehicle: water) 23 % of control; (dose: 16.5 mg/kg/injection, schedule: Q01DX009 (ip), vehicle: water) -93 % of control; (dose: 33.0 mg/kg/injection, schedule: Q01DX009 (ip), vehicle: water) -100 % of control.

As to `N[C@@H](C[C@H]1CCC(=O)[C@@H]2O[C@H]12)C(=O)O`, the T/C by setting is: under setting [3], 94 % of control; (dose: 150.0 mg/kg/injection, schedule: Q04DX003 (ip), vehicle: suspension in saline) 100 % of control; under setting [4], 90 % of control; (dose: 300.0 mg/kg/injection, schedule: Q04DX003 (ip), vehicle: suspension in saline) 75 % of control; (dose: 600.0 mg/kg/injection, schedule: Q04DX003 (ip), vehicle: saline) 104 % of control; (dose: 600.0 mg/kg/injection, schedule: Q04DX003 (ip), vehicle: suspension in saline) 82 % of control. Also, the T/C is, setting by setting: (dose: 1200.0 mg/kg/injection, schedule: Q04DX003 (ip), vehicle: saline) 47 % of control; (dose: 1200.0 mg/kg/injection, schedule: Q04DX003 (ip), vehicle: suspension in saline) 62 % of control.

For `O=C(Oc1ccccc1)c1cc(O)c(O)c(O)c1`, the T/C by setting is: under setting [3], 101 % of control; under setting [4], 55 % of control.

`O=C(Nc1ccccc1)c1c(O)[nH]c(=S)[nH]c1=O`: the T/C reads like this: (dose: 50.0 mg/kg/injection, schedule: Q04DX003 (ip), vehicle: saline with Tween-80) 85 % of control; (dose: 75.0 mg/kg/injection, schedule: Q04DX003 (ip), vehicle: saline with Tween-80) 98 % of control; (dose: 100.0 mg/kg/injection, schedule: Q04DX003 (ip), vehicle: saline with Tween-80) 108 % of control.

For the compound `CC[C@](C)(O)C(=O)O[C@H]1C(=O)O[C@@H]2C[C@H]3C(C)=CC(=O)[C@@H](O)[C@]3(C)[C@H]3[C@@]4(O)OC[C@]32[C@@H]1[C@@H](C)[C@H]4O`, the T/C by setting is: (dose: 0.25 mg/kg/injection, schedule: Q01DX010 (sc), vehicle: Klucel (hydroxypropylcellulose) (HPC)) 23 % of control; (dose: 0.5 mg/kg/injection, schedule: Q01DX010 (sc), vehicle: Klucel (hydroxypropylcellulose) (HPC)) 2 % of control.

Regarding `O=[N+]([O-])c1ccc(Sc2ccncn2)c([N+](=O)[O-])c1`, the T/C is 158 % of control (dose: 150.0 mg/kg/injection, schedule: Q04DX003 (sc), vehicle: saline with Tween-80); 153 % of control under setting [1]; 86 % of control under setting [2]; 115 % of control (dose: 1200.0 mg/kg/injection, schedule: Q04DX003 (sc), vehicle: saline with Tween-80).
